{"source": "ChEMBL document CHEMBL1121926", "about": "“Adriamycin analogues. Preparation and antitumor evaluation of 7-O-(beta-D-glucosaminyl)daunomycinone and 7-O-(beta-D-glucosaminyl)adriamycinone and their N-trifluoroacetyl derivatives” (1982)", "format_in_all_cases": "functional", "key": {"Mus musculus [1]": {"system": "Mus musculus", "experiment": "Median day of death was calculated against L1210 murine leukemia cells in BDF1 male mice at the specified in vivo dose of 120(mg/kg)/day"}, "Mus musculus [2]": {"system": "Mus musculus", "experiment": "Percent increase in life span was calculated against L1210 murine leukemia cells in BDF1 male mice at the specified in vivo dose of 120(mg/kg)/day."}, "Mus musculus [3]": {"system": "Mus musculus", "experiment": "Percent increase in life span was calculated against L1210 murine leukemia cells in BDF1 male mice at the specified in vivo dose of 3.5(mg/kg)/day."}, "Mus musculus [4]": {"system": "Mus musculus", "experiment": "Median day of death was calculated against L1210 murine leukemia cells in BDF1 male mice at the specified in vivo dose of 3.5(mg/kg)/day"}, "Mus musculus [5]": {"system": "Mus musculus", "experiment": "Percent increase in life span was calculated against L1210 murine leukemia cells in BDF1 male mice at the specified in vivo dose of 90(mg/kg)/day."}, "Mus musculus [6]": {"system": "Mus musculus", "experiment": "Median day of death was calculated against L1210 murine leukemia cells in BDF1 male mice at the specified in vivo dose of 90(mg/kg)/day"}}}
{"smiles": "COc1cccc2c1C(=O)c1c(O)c3c(c(O)c1C2=O)C[C@@](O)(C(=O)CO)C[C@@H]3OC1OC(CO)C(O)C(O)C1N", "note": "(stereo partly specified)", "values": [{"measurement": "Median day of death", "setting": "Mus musculus [1]", "value": 14}, {"measurement": "Increase in life-span", "setting": "Mus musculus [2]", "value": 40, "unit": "%"}]}
{"smiles": "COc1cccc2c1C(=O)c1c(O)c3c(c(O)c1C2=O)C[C@@](O)(C(=O)CO)C[C@@H]3O[C@H]1C[C@H](N)[C@H](O)[C@H](C)O1", "note": "[DOXORUBICIN]", "values": [{"measurement": "Increase in life-span", "setting": "Mus musculus [3]", "value": 40, "unit": "%"}, {"measurement": "Median day of death", "setting": "Mus musculus [4]", "value": 14}]}
{"smiles": "COc1cccc2c1C(=O)c1c(O)c3c(c(O)c1C2=O)C[C@@](O)(C(C)=O)C[C@@H]3O[C@@H]1O[C@H](CO)[C@@H](O)[C@H](O)[C@H]1N", "values": [{"measurement": "Increase in life-span", "setting": "Mus musculus [5]", "value": 60, "unit": "%"}, {"measurement": "Median day of death", "setting": "Mus musculus [6]", "value": 16}]}
